Test results: patent publication US6737383B1, “Herbicidal oxadiazolidines” (priority 1999, dated 2004)

What was measured:
giant foxtail = assay: Test B pre/postemergence giant foxtail; assay type: in vivo, Setaria faberii
How it was run: (§1)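 Test chemicals in a non-phytotoxic solvent mixture with surfactant were sprayed preemergence onto planted seeds and postemergence onto plants 2 to 18 cm tall (1- to 4-leaf stage). After twelve to sixteen days in a greenhouse, injury was visually rated against untreated controls from 0 (no effect) to 10 (complete control).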

morningglory = assay: Test B pre/postemergence morningglory; assay type: in vivo, Ipomoea hederacea
How it was run: as §1

pigweed = assay: Test B pre/postemergence pigweed; assay type: in vivo, Amaranthus retroflexus
How it was run: as §1

rape = assay: Test B pre/postemergence rape; assay type: in vivo, Brassica napus
How it was run: as §1

[1] = Postemergence, Rate 62 g/ha, scale 0 to 10, 0 is no effect, 10 is complete control
[2] = Postemergence, Rate 250 g/ha, scale 0 to 10, 0 no effect, 10 complete control
[3] = Preemergence, Rate 31 g/ha, visual rating, scale 0 to 10 (0 no effect, 10 complete control)
[4] = Preemergence, Rate 62 g/ha, scale 0 to 10, 0 is no effect, 10 is complete control
[5] = Preemergence, Rate 125 g/ha, scale 0 to 10 (0 no effect, 10 complete control)
[6] = Preemergence, Rate 250 g/ha, scale of 0 to 10 where 0 is no effect and 10 is complete control
[7] = Rate 31 g/ha, Postemergence, scale 0 to 10
[8] = Rate 125 g/ha, Postemergence, scale 0 to 10, 0 no effect, 10 complete control
[9] = Postemergence, Rate 250 g/ha, scale 0 to 10
[10] = Postemergence, Rate 500 g/ha, scale of 0 to 10 where 0 is no effect and 10 is complete control
[11] = Preemergence, Rate 62 g/ha, scale of 0 to 10 where 0 is no effect and 10 is complete control
[12] = Preemergence, Rate 125 g/ha, scale of 0 to 10 where 0 is no effect and 10 is complete control
[13] = Preemergence, Rate 250 g/ha, scale 0 to 10, 0 is no effect, 10 is complete control
[14] = Preemergence, Rate 500 g/ha, scale 0 to 10, 0 is no effect, 10 is complete control
[15] = Rate 62 g/ha, Postemergence, scale 0 to 10 (0 no effect, 10 complete control)
[16] = Rate 125 g/ha, Postemergence, scale 0 to 10, 0 is no effect, 10 is complete control
[17] = Postemergence, Rate 125 g/ha, scale 0 to 10, 0 is no effect, 10 is complete control
[18] = Postemergence, Rate 250 g/ha, scale 0 to 10, 0 is no effect, 10 is complete control
[19] = Preemergence, Rate 62 g/ha, scale 0 to 10 (0 no effect, 10 complete control)
[20] = Rate 62 g/ha, Postemergence, scale of 0 to 10 where 0 is no effect and 10 is complete control
[21] = Postemergence, Rate 62 g/ha, scale of 0 to 10, 0 is no effect, 10 is complete control
[22] = Postemergence, Rate 500 g/ha, scale 0 to 10, 0 is no effect, 10 is complete control
[23] = Preemergence, Rate 125 g/ha, scale 0 to 10, 0 is no effect, 10 is complete control
[24] = Preemergence, Rate 500 g/ha, scale of 0 to 10 where 0 is no effect and 10 is complete control
[25] = Rate 250 g/ha, Postemergence, scale of 0 to 10 where 0 is no effect and 10 is complete control

COc1ccc(-n2c(=O)on(C(=O)N(c3ccc(F)cc3)C(C)C)c2=O)c(OC)c1 [Compound 33]
Giant foxtail plant response rating (giant foxtail; [1]): 0 | Giant foxtail plant response rating (giant foxtail; [2]): 3 | Giant foxtail plant response rating (giant foxtail; [3]): 3 | Plant response rating, Giant foxtail (giant foxtail; [4]): 4 | Plant response rating, Giant foxtail (giant foxtail; [5]): 6 | Plant response rating, Giant foxtail (giant foxtail; [6]): 9 | Giant foxtail plant response rating (giant foxtail; [7]): 0 | Giant foxtail plant response rating (giant foxtail; [8]): 1 | Morningglory plant response rating (morningglory; [1]): 3 | Morningglory plant response rating (morningglory; [2]): 9 | Morningglory plant response rating (morningglory; [3]): 0 | Plant response rating, Morningglory (morningglory; [4]): 0 | Plant response rating, Morningglory (morningglory; [5]): 0 | Plant response rating, Morningglory (morningglory; [6]): 1 | Morningglory plant response rating (morningglory; [7]): 3 | Morningglory plant response rating (morningglory; [8]): 8 | Redroot pigweed plant response rating (pigweed; [1]): 0 | Redroot pigweed plant response rating (pigweed; [2]): 3 | Redroot pigweed plant response rating (pigweed; [3]): 0 | Plant response rating, Redroot pigweed (pigweed; [4]): 0 | Plant response rating, Redroot pigweed (pigweed; [5]): 0 | Plant response rating, Redroot pigweed (pigweed; [6]): 0 | Redroot pigweed plant response rating (pigweed; [7]): 0 | Redroot pigweed plant response rating (pigweed; [8]): 2 | Rape plant response rating (rape; [1]): 0 | Rape plant response rating (rape; [2]): 3 | Rape plant response rating (rape; [3]): 0 | Plant response rating, Rape (rape; [4]): 0 | Plant response rating, Rape (rape; [5]): 0 | Plant response rating, Rape (rape; [6]): 0 | Rape plant response rating (rape; [7]): 0 | Rape plant response rating (rape; [8]): 0

CC(C)N(C(=O)n1oc(=O)n(CCC#N)c1=O)c1ccc(Cl)cc1 [Compound 444]
Giant foxtail plant response rating (giant foxtail; [9]): 8 | Giant foxtail plant response rating (giant foxtail; [10]): 9 | Plant response rating, Giant foxtail (giant foxtail; [11]): 9 | Plant response rating, Giant foxtail (giant foxtail; [12]): 9 | Giant foxtail plant response rating (giant foxtail; [13]): 10 | Giant foxtail plant response rating (giant foxtail; [14]): 10 | Giant foxtail plant response rating (giant foxtail; [15]): 4 | Giant foxtail plant response rating (giant foxtail; [16]): 7 | Morningglory plant response rating (morningglory; [9]): 1 | Morningglory plant response rating (morningglory; [10]): 3 | Plant response rating, Morningglory (morningglory; [11]): 0 | Plant response rating, Morningglory (morningglory; [12]): 0 | Morningglory plant response rating (morningglory; [13]): 0 | Morningglory plant response rating (morningglory; [14]): 0 | Morningglory plant response rating (morningglory; [15]): 0 | Morningglory plant response rating (morningglory; [16]): 0 | Redroot pigweed plant response rating (pigweed; [10]): 2 | Plant response rating, Redroot pigweed (pigweed; [11]): 10 | Plant response rating, Redroot pigweed (pigweed; [12]): 10 | Redroot pigweed plant response rating (pigweed; [13]): 10 | Redroot pigweed plant response rating (pigweed; [14]): 10 | Redroot pigweed plant response rating (pigweed; [15]): 0 | Redroot pigweed plant response rating (pigweed; [16]): 2 | Rape plant response rating (rape; [9]): 0 | Rape plant response rating (rape; [10]): 0 | Plant response rating, Rape (rape; [11]): 0 | Plant response rating, Rape (rape; [12]): 0 | Rape plant response rating (rape; [13]): 0 | Rape plant response rating (rape; [14]): 2 | Rape plant response rating (rape; [15]): 0 | Rape plant response rating (rape; [16]): 0

CC(C)N(C(=O)n1oc(=O)n(CC#N)c1=O)c1ccc(F)cc1 [Compound 395]
Plant response rating, Giant foxtail (giant foxtail; [17]): 3 | Plant response rating, Giant foxtail (giant foxtail; [18]): 5 | Giant foxtail plant response rating (giant foxtail; [10]): 6 | Plant response rating, Giant foxtail (giant foxtail; [19]): 0 | Plant response rating, Giant foxtail (giant foxtail; [12]): 0 | Giant foxtail plant response rating (giant foxtail; [13]): 0 | Giant foxtail plant response rating (giant foxtail; [14]): 2 | Giant foxtail plant response rating (giant foxtail; [20]): 0 | Plant response rating, Morningglory (morningglory; [18]): 0 | Plant response rating, Morningglory (morningglory; [19]): 0 | Plant response rating, Morningglory (morningglory; [12]): 0 | Morningglory plant response rating (morningglory; [13]): 0 | Morningglory plant response rating (morningglory; [14]): 0 | Morningglory plant response rating (morningglory; [20]): 0 | Plant response rating, Redroot pigweed (pigweed; [18]): 0 | Redroot pigweed plant response rating (pigweed; [10]): 0 | Plant response rating, Redroot pigweed (pigweed; [19]): 0 | Plant response rating, Redroot pigweed (pigweed; [12]): 0 | Redroot pigweed plant response rating (pigweed; [13]): 0 | Redroot pigweed plant response rating (pigweed; [14]): 0 | Redroot pigweed plant response rating (pigweed; [20]): 0 | Plant response rating, Rape (rape; [18]): 0 | Plant response rating, Rape (rape; [19]): 0 | Plant response rating, Rape (rape; [12]): 0 | Rape plant response rating (rape; [13]): 0 | Rape plant response rating (rape; [14]): 0 | Rape plant response rating (rape; [20]): 0

CC(C)N(C(=O)n1oc(=O)n(CCC2OCCCO2)c1=O)c1ccc(Cl)cc1 [Compound 532]
Giant foxtail plant response rating (giant foxtail; [21]): 0 | Giant foxtail plant response rating (giant foxtail; [17]): 4 | Plant response rating, Giant foxtail (giant foxtail; [22]): 8 | Plant response rating, Giant foxtail (giant foxtail; [11]): 10 | Giant foxtail plant response rating (giant foxtail; [23]): 10 | Giant foxtail plant response rating (0 to 10 scale) (giant foxtail; Preemergence, Rate 250 g/ha): 10 | Giant foxtail plant response rating (giant foxtail; [24]): 10 | Plant response rating, Giant foxtail (giant foxtail; [25]): 4 | Morningglory plant response rating (morningglory; [21]): 0 | Morningglory plant response rating (morningglory; [17]): 3 | Plant response rating, Morningglory (morningglory; [22]): 5 | Plant response rating, Morningglory (morningglory; [11]): 0 | Morningglory plant response rating (morningglory; [23]): 0 | Morningglory plant response rating (0 to 10 scale) (morningglory; Preemergence, Rate 250 g/ha): 0 | Morningglory plant response rating (morningglory; [24]): 0 | Plant response rating, Morningglory (morningglory; [25]): 5 | Redroot pigweed plant response rating (pigweed; [21]): 0 | Redroot pigweed plant response rating (pigweed; [17]): 0 | Plant response rating, Redroot pigweed (pigweed; [22]): 2 | Plant response rating, Redroot pigweed (pigweed; [11]): 0 | Redroot pigweed plant response rating (pigweed; [23]): 0 | Redroot pigweed plant response rating (0 to 10 scale) (pigweed; Preemergence, Rate 250 g/ha): 0 | Redroot pigweed plant response rating (pigweed; [24]): 0 | Plant response rating, Redroot pigweed (pigweed; [25]): 0 | Rape plant response rating (rape; [21]): 0 | Rape plant response rating (rape; [17]): 0 | Plant response rating, Rape (rape; [22]): 2 | Plant response rating, Rape (rape; [11]): 0 | Rape plant response rating (rape; [23]): 0 | Rape plant response rating (0 to 10 scale) (rape; Preemergence, Rate 250 g/ha): 0 | Rape plant response rating (rape; [24]): 0 | Plant response rating, Rape (rape; [25]): 2

CCc1nc(C)c(C(C)n2c(=O)on(C(=O)N(c3ccc(F)cc3)C(C)C)c2=O)s1 (stereo not drawn) [Compound 449]
Giant foxtail plant response rating (giant foxtail; [9]): 0 | Giant foxtail plant response rating (giant foxtail; [10]): 3 | Plant response rating, Giant foxtail (giant foxtail; [11]): 2 | Plant response rating, Giant foxtail (giant foxtail; [12]): 6 | Giant foxtail plant response rating (giant foxtail; [13]): 8 | Giant foxtail plant response rating (giant foxtail; [14]): 10 | Giant foxtail plant response rating (giant foxtail; [15]): 0 | Giant foxtail plant response rating (giant foxtail; [16]): 0 | Morningglory plant response rating (morningglory; [9]): 5 | Morningglory plant response rating (morningglory; [10]): 5 | Plant response rating, Morningglory (morningglory; [11]): 0 | Plant response rating, Morningglory (morningglory; [12]): 0 | Morningglory plant response rating (morningglory; [13]): 0 | Morningglory plant response rating (morningglory; [14]): 0 | Morningglory plant response rating (morningglory; [15]): 2 | Morningglory plant response rating (morningglory; [16]): 5 | Redroot pigweed plant response rating (pigweed; [9]): 2 | Redroot pigweed plant response rating (pigweed; [10]): 4 | Plant response rating, Redroot pigweed (pigweed; [11]): 0 | Plant response rating, Redroot pigweed (pigweed; [12]): 0 | Redroot pigweed plant response rating (pigweed; [13]): 0 | Redroot pigweed plant response rating (pigweed; [14]): 3 | Redroot pigweed plant response rating (pigweed; [15]): 0 | Redroot pigweed plant response rating (pigweed; [16]): 0 | Rape plant response rating (rape; [9]): 0 | Rape plant response rating (rape; [10]): 3 | Plant response rating, Rape (rape; [11]): 0 | Plant response rating, Rape (rape; [12]): 0 | Rape plant response rating (rape; [13]): 0 | Rape plant response rating (rape; [14]): 0 | Rape plant response rating (rape; [15]): 0 | Rape plant response rating (rape; [16]): 0

CC(C)N(C(=O)n1oc(=O)n(C(C)C#N)c1=O)c1ccccc1 (stereo not drawn) [Compound 435]
Giant foxtail plant response rating (giant foxtail; [9]): 8 | Giant foxtail plant response rating (giant foxtail; [10]): 9 | Plant response rating, Giant foxtail (giant foxtail; [19]): 0 | Plant response rating, Giant foxtail (giant foxtail; [12]): 2 | Giant foxtail plant response rating (giant foxtail; [13]): 3 | Giant foxtail plant response rating (giant foxtail; [14]): 9 | Giant foxtail plant response rating (giant foxtail; [15]): 0 | Giant foxtail plant response rating (giant foxtail; [16]): 3 | Morningglory plant response rating (morningglory; [9]): 6 | Morningglory plant response rating (morningglory; [10]): 9 | Plant response rating, Morningglory (morningglory; [19]): 0 | Plant response rating, Morningglory (morningglory; [12]): 0 | Morningglory plant response rating (morningglory; [13]): 0 | Morningglory plant response rating (morningglory; [14]): 0 | Morningglory plant response rating (morningglory; [15]): 1 | Morningglory plant response rating (morningglory; [16]): 2 | Redroot pigweed plant response rating (pigweed; [9]): 2 | Redroot pigweed plant response rating (pigweed; [10]): 2 | Plant response rating, Redroot pigweed (pigweed; [19]): 2 | Plant response rating, Redroot pigweed (pigweed; [12]): 2 | Redroot pigweed plant response rating (pigweed; [13]): 4 | Redroot pigweed plant response rating (pigweed; [14]): 8 | Redroot pigweed plant response rating (pigweed; [15]): 0 | Redroot pigweed plant response rating (pigweed; [16]): 0 | Rape plant response rating (rape; [9]): 0 | Rape plant response rating (rape; [10]): 0 | Plant response rating, Rape (rape; [19]): 0 | Plant response rating, Rape (rape; [12]): 0 | Rape plant response rating (rape; [13]): 0 | Rape plant response rating (rape; [14]): 0 | Rape plant response rating (rape; [15]): 0 | Rape plant response rating (rape; [16]): 0
